Columns and labels:
[1] = target: MCT1 (Homo sapiens (Human), UniProt P53985); experiment: Assay 4: MCT1-mediated lactate transport in BT20 breast cancer cells; format: cell-based; details: Table 27
Summary of the method: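 BT20 cells loaded with BCECF-AM (30 mM DMSO stock) for 5 min at 37° C, washed and resuspended in Tyrode's Solution pH 7.4. Lactate uptake tracked via BCECF intracellular pH signal after adding 10 mM L-lactate.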

[2] = Metabolic stability in human liver microsomes (in vitro t1/2); format: in vitro ADME; details: for half-life at 2 µM / Human microsome t1/2, min: human liver microsomes 0.5 mg/mL, 2 μM compound; for half-life at 2 µM: read-out: Human microsome t1/2, min; for Human microsome % 60 min: human liver microsomes
Protocol: (§1) The following are assays that may be used to evaluate the metabolic stability of compounds of Formula (I) in human, rat, or mouse microsomes. The assays follow a common procedure recited below. 1. […] Two separated experiments were performed as follows. a) With NADPH: 10 μL of 20 mg/mL liver microsomes and 40 μL of 10 mM NADPH were added to the incubations. […] The final concentration of microsomes was 0.5 mg/mL. 3. The reaction was started with the addition of 4 μL of 200 μM control compound or test compound solutions. Verapamil was used as positive control in this study. The final concentration of test compound or control compound was 2 μM. 4. Aliquots of 50 μL were taken from the reaction solution at 0, 15, 30, 45 and 60 min. […] Samples were centrifuged at 3,220 g for 40 minutes. A 90 μL aliquot of the supernatant was mixed with 90 μL of ultra-pure H2O and then used for LC-MS/MS analysis. 5. Data analysis. All calculations were carried out using Microsoft Excel. Peak areas were determined from extracted ion chromatograms. The slope value, k, was determined by linear regression of the natural logarithm of the remaining percentage of the parent drug vs. incubation time curve. The in vitro half-life (in vitro t1/2) was determined from the slope value: in vitro t1/2=−(0.693)/k.

[3] = Metabolic stability in mouse liver microsomes (in vitro t1/2); format: in vitro ADME; details: for half-life at 2 µM: mouse liver microsomes 0.5 mg/mL, 2 μM compound, read-out: Mouse microsome t1/2, min; for Mouse microsome % 60 min: mouse liver microsomes
Protocol: as §1

[4] = target: MCT4 (Homo sapiens (Human), UniProt O15427); experiment: Assay 3: MCT4-mediated lactate transport in MDA-MB-231 breast cancer cells; format: cell-based; details: MDA-MB-231 cells; lactate transport
Summary of the method: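 MDA-MB-231 cells loaded with BCECF-AM, 5 min at 37° C, washed and resuspended in Tyrode's Solution, pH 7.4. MCT4 lactate/proton symport followed as the intracellular pH change reported by BCECF fluorescence.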

[5] = Metabolic stability in rat liver microsomes (in vitro t1/2); format: in vitro ADME; details: for half-life at 2 µM: read-out: Rat microsome t1/2, min; for Rat microsome % 60 min: rat liver microsomes
Protocol: as §1

[6] = rat liver microsomes 0.5 mg/mL, 2 μM compound

MCT4, sequence (O15427 whole entry, looked up): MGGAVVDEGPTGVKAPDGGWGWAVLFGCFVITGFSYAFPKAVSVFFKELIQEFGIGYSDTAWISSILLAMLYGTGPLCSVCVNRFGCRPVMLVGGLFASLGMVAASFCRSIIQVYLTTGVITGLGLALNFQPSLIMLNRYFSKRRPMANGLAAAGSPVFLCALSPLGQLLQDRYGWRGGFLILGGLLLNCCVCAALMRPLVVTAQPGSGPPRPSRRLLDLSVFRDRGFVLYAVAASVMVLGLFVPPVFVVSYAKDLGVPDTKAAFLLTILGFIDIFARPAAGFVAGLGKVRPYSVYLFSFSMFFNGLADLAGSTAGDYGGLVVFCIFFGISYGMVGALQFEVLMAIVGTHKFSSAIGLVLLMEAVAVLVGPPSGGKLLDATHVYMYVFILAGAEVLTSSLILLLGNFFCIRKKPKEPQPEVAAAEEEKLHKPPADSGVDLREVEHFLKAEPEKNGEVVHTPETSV
MCT4, sequence (P35613 whole entry partner, looked up): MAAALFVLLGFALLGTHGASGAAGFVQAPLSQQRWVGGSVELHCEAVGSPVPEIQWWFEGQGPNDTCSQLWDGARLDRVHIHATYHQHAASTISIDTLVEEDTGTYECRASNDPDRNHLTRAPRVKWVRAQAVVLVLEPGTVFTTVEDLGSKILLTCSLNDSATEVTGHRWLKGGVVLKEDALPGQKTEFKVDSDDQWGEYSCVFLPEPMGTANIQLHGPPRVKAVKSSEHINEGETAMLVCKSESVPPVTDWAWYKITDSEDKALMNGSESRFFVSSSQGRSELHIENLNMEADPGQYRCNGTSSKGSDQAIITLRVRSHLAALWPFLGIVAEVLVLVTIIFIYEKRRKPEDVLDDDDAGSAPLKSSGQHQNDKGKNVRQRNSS
MCT1, sequence (P53985 whole entry): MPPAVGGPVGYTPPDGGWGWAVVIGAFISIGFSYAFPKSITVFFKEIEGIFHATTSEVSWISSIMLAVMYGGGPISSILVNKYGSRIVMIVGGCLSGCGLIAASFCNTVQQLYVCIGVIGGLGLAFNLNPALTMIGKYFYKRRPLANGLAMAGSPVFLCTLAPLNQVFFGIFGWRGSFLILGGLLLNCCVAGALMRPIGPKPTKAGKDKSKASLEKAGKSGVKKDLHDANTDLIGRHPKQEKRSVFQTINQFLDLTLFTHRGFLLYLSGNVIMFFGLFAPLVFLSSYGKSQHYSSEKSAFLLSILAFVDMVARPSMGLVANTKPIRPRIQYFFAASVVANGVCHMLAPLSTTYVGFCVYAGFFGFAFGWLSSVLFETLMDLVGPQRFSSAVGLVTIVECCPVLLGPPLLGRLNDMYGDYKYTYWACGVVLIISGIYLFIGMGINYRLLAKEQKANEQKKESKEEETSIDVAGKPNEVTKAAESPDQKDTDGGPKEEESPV
MCT1, sequence (P35613 140-385 partner): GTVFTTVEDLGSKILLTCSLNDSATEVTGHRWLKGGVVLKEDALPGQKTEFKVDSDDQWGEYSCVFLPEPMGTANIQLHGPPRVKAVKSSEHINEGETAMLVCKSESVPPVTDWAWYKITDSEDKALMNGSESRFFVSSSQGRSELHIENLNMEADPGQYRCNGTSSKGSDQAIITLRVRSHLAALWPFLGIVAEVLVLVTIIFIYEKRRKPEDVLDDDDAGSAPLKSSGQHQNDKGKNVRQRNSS

Structure (SMILES)	IC50 [1]	half-life at 2 µM [2]	Human microsome % 60 min [2]	half-life at 2 µM [3]	Mouse microsome % 60 min [3]	IC50 [4]	half-life at 2 µM [5, 6]	Rat microsome % 60 min [5]	Human microsome t1/2, min [2]	Rat microsome t1/2, min [5, 6]
CC(C)(C)COc1cccc(-c2cc(COC(C)(C)C(=O)O)nn2-c2ccccc2N2CCC2)c1 [Example 155, 2-([1-[2-(Azetidin-1-yl)phenyl]-5-[3-(2,2-di-methylpropoxy)phenyl]-1H-pyrazol-3-yl]-methoxy)-2-methylpropanoic acid]	> 33000 nM	0.867 h	62%	0.633 h	37%	0.32 nM	1.22 h	70%		
Cn1ncc2cccc(-n3nc(COC(C)(C)C(=O)O)cc3-c3cccc(OC4CCC4)c3)c21 [Example 166, 2-([5-(3-Cyclobutoxyphenyl)-1-(1-methyl-1H-indazol-7-yl)-1H-pyrazol-3-yl]-methoxy)-2-methylpropanoic acid]	53000 nM	21.1 h	94%	3.23 h	82%	5.9 nM		102%		∞
CC(C)(C)COc1cccc(-c2cc(COC(C)(C)C(=O)O)nn2-c2ccccc2Cl)c1 [Example 177, 2-([1-(2-chlorophenyl)-5-[3-(2,2-dimethyl-propoxy)phenyl]-1H-pyrazol-3-yl]methoxy)-2-methylpropanoic acid]	35000 nM	3.07 h	75%	5.57 h	87%	1.4 nM	10.6 h	90%		
CC(C)(OCc1cc(-c2cccc(OCC3CCC3)c2)n(-c2ccccc2Cl)n1)C(=O)O [Example 178, 2-([1-(2-Chlorophenyl)-5-[3-(Cyclobutyl-methoxy)phenyl]-1H-pyrazol-3-yl]-methoxy)-2-methylpropanoic acid]	27000 nM	1.92 h	66%	2.08 h	70%	2.5 nM	2.42 h	72%		
CC(C)(OCc1cc(-c2cccc(OC3CC3)c2)n(-c2ccc(F)cc2N2CCC2)n1)C(=O)O [Example 183, 2-([1-[2-(Azetidin-1-yl)-4-fluorophenyl]-5-(3-cyclopropoxyphenyl)-1H-pyraz.ol-3-yl]-methoxy)-2-methylpropanoic acid]	86000 nM	1.65 h	66%	2.03 h	73%	1.3 nM	1.68 h	71%		
Cc1ccccc1-n1nc(COC(C)(C)C(=O)O)cc1-c1cccc(OC2CC2)c1 [Example 188, 2-([5-(3-Cyclopropoxyphenyl)-1-(2-methyl-phenyl)-1H-pyrazol-3-yl]methoxy)-2-methylpropanoic acid]	15000 nM		101%	23.3 h	92%	7.5 nM	8.17 h	87%	∞	
CC(C)(OCc1cc(-c2cccc(OC3CC3)c2)n(Cc2ccccc2N2CCCC2)n1)C(=O)O [Example 202, 2-([5-(3-Cyclopropoxyphenyl)-1-[[2-(pyrrolidin-1-yl)phenyl]methyl]|-1H-pyrazol-3-yl]methoxy)-2-methylpropanoic acid]	23000 nM	0.617 h	32%	0.633 h	32%	6.2 nM	0.183 h	2%		
CC(C)(OCc1cc(-c2cccc(OC3CC3)c2)n(-c2ccccc2N2CCCC2)n1)C(=O)O [Example 221, 2-([5-(3-Cyclopropoxyphenyl)-1-[2-(pyrrolidin-1-yl)phenyl]-1H-pyrazol-3-yl]-methoxy)-2-methylpropanoic acid]	38000 nM	1.13 h	56%	0.633 h	34%	3.2 nM	0.617 h	33%		
CC[C@@](C)(OCc1cc(-c2cc(OC)cc(OC)c2)n(-c2ccccc2Cl)n1)C(=O)O [Example 222, (2R)-2-([1-(2-Chlorophenyl)-5-(3,5-dimethoxyphenyl)-1H-pyrazol-3-yl]-methoxy)-2-methylbutanoic acid]	94000 nM		110%	16.7 h	94%	3.9 nM	5.58 h	90%	∞	

Further lines, with some results ahead:

IC50 [1]	half-life at 2 µM [2]	Human microsome % 60 min [2]	half-life at 2 µM [3]	Mouse microsome % 60 min [3]	IC50 [4]	half-life at 2 µM [5, 6]	Rat microsome % 60 min [5]	Human microsome t1/2, min [2]	Structure (SMILES)	Rat microsome t1/2, min [5, 6]
16000 nM	1.82 h	67%	1.07 h	62%	8.3 nM	0.983 h	48%		COc1cccc(-c2cc(COC(C)(C)C(=O)O)nn2Cc2ccccc2OC(C)C)c1 [Example 140, 2-([5-(3-Methoxyphenyl)-1-[[2-(propan-2-yloxy)phenyl]methyl]-1H-pyrazol-3-yl)methoxy)-2-methylpropanoic acid]	
38000 nM	1.47 h	62%	0.617 h	33%	1.9 nM	0.633 h	32%		CCOc1ccccc1Cn1nc(COC(C)(C)C(=O)O)cc1-c1cc(Cl)cc(OC)c1 [Example 196, 2-([5-(3-Chloro-5-methoxyphenyl)-1-[(2-ethoxyphenyl)methyl]1H-pyrazol-3-yl]-methoxy)-2-methylpropanoic acid]	
26000 nM	3.45 h	80%	4.05 h	84%	3.5 nM	3.42 h	82%		CCOc1ccccc1Cn1nc(COC(C)(C)C(=O)O)cc1-c1ccc2cnn(CC)c2c1 [Example 198, 2-([1-[(2-Ethoxyphenyl)methyl]-5-(1-ethyl-1H-indazol-6-yl)-1H-pyrazol-3-yl]-methoxy)-2-methylpropanoic acid]	
15000 nM	1.38 h	58%	1.38 h	58%	7.2 nM	0.75 h	39%		CCOc1ccccc1Cn1nc(COC(C)(C)C(=O)O)cc1-c1cccc(OC2CC2)c1 [Example 201, 2-([5-(3-Cyclopropoxyphenyl)-1-[(2-ethoxy-phenyl)methyl]-1H-pyrazol-3-yl]methoxy)-2-methylpropanoic acid]	
54000 nM	7.8 h	95%	11.4 h	95%	15 nM	7.58 h	88%		Cn1ncc2ccc(-c3cc(COC(C)(C)C(=O)O)nn3Cc3ccccc3Cl)cc21 [Example 226, 2-([1-[(2-Chlorophenyl)methyl]-5-(1-methyl-1H-indazol-6-yl)-1H-pyrazol-3-yl]-methoxy)-2-methylpropanoic acid]	

Reference: patent US10214492B2, “Heterocyclic inhibitors of MCT4” (Vettore, LLC, priority 2016, dated 2019)
